Values quoted from earlier work in patent publication US20260335284A1, “STABLE MITOMYCIN CONCENTRATES” (STEPS BIOSCIENCES, INC., priority 2022, published 2026).

Settings: EP 0415430A1

CO[C@@]12[C@H](COC(N)=O)C3=C(C(=O)C(C)=C(N)C3=O)N1C[C@@H]1N[C@@H]12 [MMC, Mitomycin C]
Stability in water and in PEG (in water and also in PEG): very unstable | Stability in PG with finite percentage of water (5%) (solutions at 5 mg/mL): most stable
